How the values were obtained:
Assay type in all cases: in vivo
[1] = tested on: hairy beggarticks (Bidens pilosa); assay: Test E pre-/postemergence greenhouse test, plant response rating 0-100; conditions: scale 0 to 100; for Beggarticks plant response rating: Preemergence
Procedure, shortened: (§1)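 Pre: seeded silt loam sprayed; post: 1–4-leaf plants (2–18 cm) in peat-based mix sprayed. Formulation: non-phytotoxic solvent + surfactant. Greenhouse 14–21 d; visual rating vs controls, 0 = no effect, 100 = complete control.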

[2] = tested on: Italian ryegrass (Lolium multiflorum); assay: as above; conditions: scale 0 to 100; for Ryegrass, Italian plant response rating: Preemergence
Procedure, shortened: as §1

[3] = tested on: fall panicum (Panicum dichotomiflorum); assay: as above; conditions: scale 0 to 100; for Panicum, Fall plant response rating: Preemergence
Procedure, shortened: as §1

[4] = tested on: Brazilian crabgrass (Digitaria horizontalis); assay: as above; conditions: Digitaria horizontalis, post-emergence, Postemergence, scale 0 to 100, read-out: Plant response rating, Crabgrass, Brazil
Procedure, shortened: as §1

[5] = tested on: palmer pigweed (Amaranthus palmeri); assay: as above; conditions: scale 0 to 100; for Pigweed, Palmer plant response rating: Preemergence
Procedure, shortened: as §1

[6] = tested on: sandbur (southern sandbur, Cenchrus echinatus); assay: as above; conditions: scale 0 to 100; for Sandbur plant response rating: Preemergence
Procedure, shortened: as §1

[7] = tested on: dayflower (Virginia (VA) dayflower, Commelina virginica); assay: as above; conditions: scale 0 to 100; for Dayflower, VA plant response rating: Preemergence
Procedure, shortened: as §1

[8] = tested on: wild poinsettia (Euphorbia heterophylla); assay: as above; conditions: scale 0 to 100; for Poinsettia, Wild plant response rating: Preemergence
Procedure, shortened: as §1

[9] = tested on: arrowleaf sida (Sida rhombifolia); assay: as above; conditions: for Arrowleaf Sida plant response rating: Preemergence
Procedure, shortened: as §1

corn (Zea mays) = assay: as above; conditions: scale 0 to 100; for Corn plant response rating: Preemergence
Procedure, shortened: as §1

[10] = tested on: barnyardgrass (Echinochloa crus-galli); assay: as above; conditions: scale 0 to 100; for Barnyardgrass plant response rating: Preemergence
Procedure, shortened: as §1

[11] = tested on: barnyardgrass (Echinochloa crus-galli); assay: Test B flooded paddy test, plant response rating 0-100; conditions: Flood, 250 g ai/ha; scale 0 to 100 (0 no effect, 100 complete control); 13 to 15 days
Procedure, shortened: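 Ratings were visual and made relative to untreated controls after 13 to 15 greenhouse days.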

## O=C(c1ccccc1)c1cn(CO)nc1-c1cc(Cl)cc(Cl)c1 [Compound 15, [3-(3,5-dichlorophenyl)-1-(hydroxymethyl)-1H-pyrazol-4-yl]phenylmethanone]
[1]; Bidens pilosa, post-emergence, Postemergence, 31 g ai/ha
  pest or weed control at 31 g/ha: 90%
[1]; Bidens pilosa, post-emergence, Postemergence, 62 g ai/ha
  pest or weed control at 62 g/ha: 98%
[1]; Bidens pilosa, post-emergence, Postemergence, 125 g ai/ha
  pest or weed control at 125 g/ha: 98%
[1]; Bidens pilosa, post-emergence, Postemergence, 250 g ai/ha
  pest or weed control at 250 g/ha: 100%
[1]; Bidens pilosa, post-emergence, Postemergence, 500 g ai/ha
  pest or weed control at 500 g/ha: 98%
[1]; 31 g ai/ha
  Beggarticks plant response rating: 0
[1]; 62 g ai/ha
  Beggarticks plant response rating: 0
[1]; 125 g ai/ha
  Beggarticks plant response rating: 0
[1]; 250 g ai/ha
  Beggarticks plant response rating: 25
[1]; 500 g ai/ha
  Beggarticks plant response rating: 80
[2]; Lolium multiflorum, post-emergence, Postemergence, 31 g ai/ha
  pest or weed control at 31 g/ha: 0%
[2]; Lolium multiflorum, post-emergence, Postemergence, 62 g ai/ha
  pest or weed control at 62 g/ha: 0%
[2]; Lolium multiflorum, post-emergence, Postemergence, 125 g ai/ha
  pest or weed control at 125 g/ha: 0%
[2]; Lolium multiflorum, post-emergence, Postemergence, 250 g ai/ha
  pest or weed control at 250 g/ha: 0%
[2]; Lolium multiflorum, post-emergence, Postemergence, 500 g ai/ha
  pest or weed control at 500 g/ha: 0%
[2]; 31 g ai/ha
  Ryegrass, Italian plant response rating: 0
[2]; 62 g ai/ha
  Ryegrass, Italian plant response rating: 0
[2]; 125 g ai/ha
  Ryegrass, Italian plant response rating: 0
[2]; 250 g ai/ha
  Ryegrass, Italian plant response rating: 0
[2]; 500 g ai/ha
  Ryegrass, Italian plant response rating: 0
[3]; Panicum dichotomiflorum, post-emergence, Postemergence, 31 g ai/ha
  pest or weed control at 31 g/ha: 0%
[3]; Panicum dichotomiflorum, post-emergence, Postemergence, 62 g ai/ha
  pest or weed control at 62 g/ha: 0%
[3]; Panicum dichotomiflorum, post-emergence, Postemergence, 125 g ai/ha
  pest or weed control at 125 g/ha: 0%
[3]; Panicum dichotomiflorum, post-emergence, Postemergence, 250 g ai/ha
  pest or weed control at 250 g/ha: 0%
[3]; Panicum dichotomiflorum, post-emergence, Postemergence, 500 g ai/ha
  pest or weed control at 500 g/ha: 35%
[3]; 31 g ai/ha
  Panicum, Fall plant response rating: 0
[3]; 62 g ai/ha
  Panicum, Fall plant response rating: 0
[3]; 125 g ai/ha
  Panicum, Fall plant response rating: 0
[3]; 250 g ai/ha
  Panicum, Fall plant response rating: 0
[3]; 500 g ai/ha
  Panicum, Fall plant response rating: 0
[4]; 31 g ai/ha
  pest or weed control at 31 g/ha: 0%
[4]; 62 g ai/ha
  pest or weed control at 62 g/ha: 0%
[4]; 125 g ai/ha
  pest or weed control at 125 g/ha: 0%
[4]; 250 g ai/ha
  pest or weed control at 250 g/ha: 0%
[4]; 500 g ai/ha
  pest or weed control at 500 g/ha: 0%
[5]; Amaranthus palmeri, post-emergence, Postemergence, 31 g ai/ha
  pest or weed control at 31 g/ha: 35%
[5]; Amaranthus palmeri, post-emergence, Postemergence, 62 g ai/ha
  pest or weed control at 62 g/ha: 75%
[5]; Amaranthus palmeri, post-emergence, Postemergence, 125 g ai/ha
  pest or weed control at 125 g/ha: 75%
[5]; Amaranthus palmeri, post-emergence, Postemergence, 250 g ai/ha
  pest or weed control at 250 g/ha: 98%
[5]; Amaranthus palmeri, post-emergence, Postemergence, 500 g ai/ha
  pest or weed control at 500 g/ha: 100%
[5]; 31 g ai/ha
  Pigweed, Palmer plant response rating: 0
[5]; 62 g ai/ha
  Pigweed, Palmer plant response rating: 0
[5]; 125 g ai/ha
  Pigweed, Palmer plant response rating: 0
[5]; 250 g ai/ha
  Pigweed, Palmer plant response rating: 65
[5]; 500 g ai/ha
  Pigweed, Palmer plant response rating: 100
[6]; Cenchrus echinatus, post-emergence, Postemergence, 31 g ai/ha
  pest or weed control at 31 g/ha: 0%
[6]; Cenchrus echinatus, post-emergence, Postemergence, 62 g ai/ha
  pest or weed control at 62 g/ha: 0%
[6]; Cenchrus echinatus, post-emergence, Postemergence, 125 g ai/ha
  pest or weed control at 125 g/ha: 0%
[6]; Cenchrus echinatus, post-emergence, Postemergence, 250 g ai/ha
  pest or weed control at 250 g/ha: 0%
[6]; Cenchrus echinatus, post-emergence, Postemergence, 500 g ai/ha
  pest or weed control at 500 g/ha: 0%
[6]; 31 g ai/ha
  Sandbur plant response rating: 0
[6]; 62 g ai/ha
  Sandbur plant response rating: 30
[6]; 125 g ai/ha
  Sandbur plant response rating: 50
[6]; 250 g ai/ha
  Sandbur plant response rating: 40
[6]; 500 g ai/ha
  Sandbur plant response rating: 35
[7]; Commelina virginica, post-emergence, Postemergence, 31 g ai/ha
  pest or weed control at 31 g/ha: 0%
[7]; Commelina virginica, post-emergence, Postemergence, 62 g ai/ha
  pest or weed control at 62 g/ha: 0%
[7]; Commelina virginica, post-emergence, Postemergence, 125 g ai/ha
  pest or weed control at 125 g/ha: 0%
[7]; Commelina virginica, post-emergence, Postemergence, 250 g ai/ha
  pest or weed control at 250 g/ha: 0%
[7]; Commelina virginica, post-emergence, Postemergence, 500 g ai/ha
  pest or weed control at 500 g/ha: 0%
[7]; 31 g ai/ha
  Dayflower, VA plant response rating: 0
[7]; 62 g ai/ha
  Dayflower, VA plant response rating: 0
[7]; 125 g ai/ha
  Dayflower, VA plant response rating: 0
[7]; 500 g ai/ha
  Dayflower, VA plant response rating: 0
[8]; Euphorbia heterophylla, post-emergence, Postemergence, 31 g ai/ha, read-out: Plant response rating, Poinsettia, Wild
  pest or weed control at 31 g/ha: 0%
[8]; Euphorbia heterophylla, post-emergence, Postemergence, 62 g ai/ha, read-out: Plant response rating, Poinsettia, Wild
  pest or weed control at 62 g/ha: 0%
[8]; Euphorbia heterophylla, post-emergence, Postemergence, 125 g ai/ha, read-out: Plant response rating, Poinsettia, Wild
  pest or weed control at 125 g/ha: 0%
[8]; Euphorbia heterophylla, post-emergence, Postemergence, 250 g ai/ha, read-out: Plant response rating, Poinsettia, Wild
  pest or weed control at 250 g/ha: 0%
[8]; Euphorbia heterophylla, post-emergence, Postemergence, 500 g ai/ha, read-out: Plant response rating, Poinsettia, Wild
  pest or weed control at 500 g/ha: 0%
[8]; 125 g ai/ha
  Poinsettia, Wild plant response rating: 0
[8]; 250 g ai/ha
  Poinsettia, Wild plant response rating: 0
[8]; 500 g ai/ha
  Poinsettia, Wild plant response rating: 0
[9]; 31 g ai/ha, scale 0 to 100
  Arrowleaf Sida plant response rating: 25
[9]; 62 g ai/ha, scale 0 to 100
  Arrowleaf Sida plant response rating: 30
[9]; 125 g ai/ha, scale 0 to 100
  Arrowleaf Sida plant response rating: 90
[9]; 250 g ai/ha, scale 0 to 100
  Arrowleaf Sida plant response rating: 100
[9]; 500 g ai/ha, scale 0 to 100
  Arrowleaf Sida plant response rating: 98
[9]; Sida rhombifolia, post-emergence, Postemergence, 31 g ai/ha, scale 0 to 100
  pest or weed control at 31 g/ha: 98%
[9]; Sida rhombifolia, post-emergence, Postemergence, 62 g ai/ha, scale 0 to 100
  pest or weed control at 62 g/ha: 90%
[9]; Sida rhombifolia, post-emergence, Postemergence, 125 g ai/ha, scale 0 to 100
  pest or weed control at 125 g/ha: 98%
[9]; Sida rhombifolia, post-emergence, Postemergence, 250 g ai/ha, scale 0 to 100
  pest or weed control at 250 g/ha: 98%
[9]; Sida rhombifolia, post-emergence, Postemergence, 500 g ai/ha, scale 0 to 100 (0 no effect, 100 complete control)
  pest or weed control at 500 g/ha: 98%
Corn (Zea mays); 31 g ai/ha
  Corn plant response rating: 0
Corn (Zea mays); 62 g ai/ha
  Corn plant response rating: 0
Corn (Zea mays); 125 g ai/ha
  Corn plant response rating: 0
Corn (Zea mays); 250 g ai/ha
  Corn plant response rating: 0
Corn (Zea mays); 500 g ai/ha
  Corn plant response rating: 0
Corn (Zea mays); Zea mays, post-emergence, Postemergence, 31 g ai/ha
  Corn plant response rating (crop injury, 0 = no effect, 100 = complete kill) at 31 g/ha: 0%
Corn (Zea mays); Zea mays, post-emergence, Postemergence, 62 g ai/ha
  Corn plant response rating (crop injury, 0 = no effect, 100 = complete kill) at 62 g/ha: 0%
Corn (Zea mays); Zea mays, post-emergence, Postemergence, 125 g ai/ha
  Corn plant response rating (crop injury, 0 = no effect, 100 = complete kill) at 125 g/ha: 0%
Corn (Zea mays); Zea mays, post-emergence, Postemergence, 250 g ai/ha
  Corn plant response rating (crop injury, 0 = no effect, 100 = complete kill) at 250 g/ha: 0%
Corn (Zea mays); Zea mays, post-emergence, Postemergence, 500 g ai/ha
  Corn plant response rating (crop injury, 0 = no effect, 100 = complete kill) at 500 g/ha: 0%
[10]; Echinochloa crus-galli, post-emergence, Postemergence, 31 g ai/ha
  pest or weed control at 31 g/ha: 0%
[10]; Echinochloa crus-galli, post-emergence, Postemergence, 62 g ai/ha
  pest or weed control at 62 g/ha: 0%
[10]; Echinochloa crus-galli, post-emergence, Postemergence, 125 g ai/ha
  pest or weed control at 125 g/ha: 0%
[10]; Echinochloa crus-galli, post-emergence, Postemergence, 250 g ai/ha
  pest or weed control at 250 g/ha: 0%
[10]; Echinochloa crus-galli, post-emergence, Postemergence, 500 g ai/ha
  pest or weed control at 500 g/ha: 0%
[10]; 31 g ai/ha
  Barnyardgrass plant response rating: 0
[10]; 62 g ai/ha
  Barnyardgrass plant response rating: 0
[10]; 125 g ai/ha
  Barnyardgrass plant response rating: 0
[10]; 250 g ai/ha
  Barnyardgrass plant response rating: 0
[10]; 500 g ai/ha
  Barnyardgrass plant response rating: 0
[11]
  Plant response rating, Barnyardgrass: 0

From US10167262B2, “Herbicidal substituted 3-arylpyrazoles” (FMC CORPORATION, priority 2014, dated 2019)
